This passage reports IC50 results from patent US8716281B2, “Pyrimidine compounds that inhibit anaplastic lymphoma kinase” (Amgen Inc., priority 2010, dated 2014).

T1 sequence (Q9UM73 1058-1620): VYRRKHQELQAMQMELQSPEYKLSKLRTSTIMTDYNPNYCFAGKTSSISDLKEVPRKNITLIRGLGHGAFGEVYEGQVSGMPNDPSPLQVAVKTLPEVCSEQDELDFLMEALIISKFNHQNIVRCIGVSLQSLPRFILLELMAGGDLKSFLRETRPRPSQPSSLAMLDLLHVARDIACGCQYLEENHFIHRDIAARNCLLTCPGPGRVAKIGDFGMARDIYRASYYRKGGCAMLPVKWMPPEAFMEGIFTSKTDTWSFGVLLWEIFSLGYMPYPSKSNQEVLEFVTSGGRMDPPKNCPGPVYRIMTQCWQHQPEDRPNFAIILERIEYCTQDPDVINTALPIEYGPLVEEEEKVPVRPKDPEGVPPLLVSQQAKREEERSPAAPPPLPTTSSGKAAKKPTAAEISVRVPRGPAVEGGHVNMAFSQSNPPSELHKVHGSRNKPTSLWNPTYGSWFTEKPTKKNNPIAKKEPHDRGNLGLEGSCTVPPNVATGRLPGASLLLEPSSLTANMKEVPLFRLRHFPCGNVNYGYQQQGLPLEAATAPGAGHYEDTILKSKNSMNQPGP

The first assay concerns the target T1, wild-type human ALK cytoplasmic domain (amino acids 1058-1620) (Homo sapiens, UniProt Q9UM73).
T1 construct: The cytoplasmic domain (amino acids 1058-1620) of wild-type human ALK; GST (N); made in house; host or cells: SF9 insect cells
Put plainly: ALK Inhibition in Enzyme Assay (Lance TR-FRET). It counts as biochemical.
Conditions: not given
The method, then: ALK Inhibition in Enzyme Assay
Kinase activity of the purified protein was assessed using a Lance® TR-FRET assay. […] The reaction was allowed to proceed for 90 minutes at room temperature and was then terminated with 20 mM EDTA in 50 mM Tris (pH 7.5), 100 mM NaCl, 0.05% BSA, and 0.1% Tween-20. Phosphorylation of the peptide substrate was detected using the Lance® detection reagents streptavidin-allophycocyanin (SA-APC) and Eu-W1024 anti-phosphotyrosine antibody (PT66) from Perkin Elmer Life Sciences (Waltham, Mass.). The plates were read on a RUBY star plate reader (BMG LABTECH, Cary, N.C.) with an excitation wavelength of 320 nm.
As to `COc1cc(Nc2nccc(N3CCC[C@H](C(=O)NCc4ccc([N+](=O)[O-])cc4)C3)n2)cc(OC)c1OC` [Example 71, (S)-N-(4-nitrobenzyl)-1-(2-((3,4,5-trimethoxyphenyl)amino)-4-pyrimidinyl)-3-piperidinecarboxamide], the IC50 was in the range of 1 to 5 µM.

Still in this assay, the particulars now being: 2 nM enzyme, ATP at 40 μM (Km apparent), 90 minutes, mean of three replicates; read-out: ALK IC50.
Consider `COc1cc(Nc2nccc(N3CCC[C@H](C(=O)NC(C)c4ccc5[nH]ccc5c4)C3)n2)cc(OC)c1OC` (stereo partly drawn) [Example 45, (S)-N-(1-(1H-indol-5-yl)ethyl)-1-(2-((3,4,5-trimethoxyphenyl)amino)-4-pyrimidinyl)-3-piperidinecarboxamide], for which the 50% inhibitory concentration (IC50) fell in the range of 0.1 to 1 µM.
The same measure, in the same setting: in the case of `COc1cc(Nc2nccc(N3CCC[C@H](C(=O)NCc4ccc(-n5cccn5)cc4)C3)n2)cc(OC)c1OC` [Example 46, (S)-N-(4-(1H-pyrazol-1-yl)benzyl)-1-(2-((3,4,5-trimethoxyphenyl)amino)-4-pyrimidinyl)-3-piperidinecarboxamide] it was 1 to 5 µM; in that of `COc1cc(Nc2nccc(N3CCC[C@H](C(=O)NCc4ccc(Br)cc4)C3)n2)cc(OC)c1OC` [Example 47, (S)-N-(4-bromobenzyl)-1-(2-((3,4,5-trimethoxyphenyl)amino)-4-pyrimidinyl)-3-piperidinecarboxamide], 0.05 to 0.1 µM; in that of `COc1cccc([C@@H](C)NC(=O)[C@H]2CCCN(c3ccnc(Nc4cc(OC)c(OC)c(OC)c4)n3)C2)c1` [Example 48, (S)-N-((R)-1-(3-methoxyphenyl)ethyl)-1-(2-((3,4,5-trimethoxyphenyl)amino)-4-pyrimidinyl)-3-piperidinecarboxamide], 1 to 5 µM.
As for `COc1cc(Nc2nccc(N3CCC[C@H](C(=O)NCc4ccccc4Br)C3)n2)cc(OC)c1OC` [Example 49, (S)-N-(2-bromobenzyl)-1-(2-((3,4,5-trimethoxyphenyl)amino)-4-pyrimidinyl)-3-piperidinecarboxamide], the IC50 was in the range of 1 to 5 µM.
For `COc1cc(Nc2nccc(N3CCC[C@H](C(=O)NC(C)c4ccc(F)cc4)C3)n2)cc(OC)c1OC` (stereo partly drawn) [Example 51, (S)-N-(1-(4-fluorophenyl)ethyl)-1-(2-((3,4,5-trimethoxyphenyl)amino)-4-pyrimidinyl)-3-piperidinecarboxamide], the IC50 lay in the range of 0.1 to 1 µM.
With `COc1cc(Nc2nccc(N3CCC[C@H](C(=O)NC(C)c4ccc(O)cc4)C3)n2)cc(OC)c1OC` (stereo partly drawn) [Example 53, (S)-N-(1-(4-hydroxyphenyl)ethyl)-1-(2-((3,4,5-trimethoxyphenyl)amino)-4-pyrimidinyl)-3-piperidinecarboxamide], the half-maximal inhibitory concentration (IC50) was in the range of 5 to 10 µM.
Take `COc1cc(Nc2nccc(N3CCC[C@H](C(=O)NC(C)(C)c4ccccc4)C3)n2)cc(OC)c1OC` [Example 54, (S)-N-(1-methyl-1-phenylethyl)-1-(2-((3,4,5-trimethoxyphenyl)amino)-4-pyrimidinyl)-3-piperidinecarboxamide]: the concentration for half-maximal inhibition (IC50) was in the range of 1 to 5 µM.
With `COc1cc(Nc2nccc(N3CCC[C@H](C(=O)NC(C)c4ccc(C)cc4)C3)n2)cc(OC)c1OC` (stereo partly drawn) [Example 55, (S)-N-(1-(4-methylphenyl)ethyl)-1-(2-((3,4,5-trimethoxyphenyl)amino)-4-pyrimidinyl)-3-piperidinecarboxamide], the IC50 lay within 0.1 to 1 µM.
Regarding `COc1cc(Nc2nccc(N3CCC[C@H](C(=O)NCc4ccc(Br)cc4F)C3)n2)cc(OC)c1OC` [Example 56, (S)-N-(4-bromo-2-fluorobenzyl)-1-(2-((3,4,5-trimethoxyphenyl)amino)-4-pyrimidinyl)-3-piperidinecarboxamide], the IC50 was less than 0.05 µM.
Still for that read-out and setting: in the case of `COc1cc(Nc2nccc(N3CCC[C@H](C(=O)NCc4ccc(F)cc4F)C3)n2)cc(OC)c1OC` [Example 57, (S)-N-(2,4-difluorobenzyl)-1-(2-((3,4,5-trimethoxyphenyl)amino)-4-pyrimidinyl)-3-piperidinecarboxamide] it was 0.05 to 0.1 µM; in that of `COc1cc(Nc2nccc(N3CCC[C@H](C(=O)NCc4cc(Br)ccc4F)C3)n2)cc(OC)c1OC` [Example 58, (S)-N-(5-bromo-2-fluorobenzyl)-1-(2-((3,4,5-trimethoxyphenyl)amino)-4-pyrimidinyl)-3-piperidinecarboxamide], less than 0.05 µM.
The same measure, in the same setting: in the case of `COc1cc(Nc2nccc(N3CCC[C@H](C(=O)NCc4nc(C)cs4)C3)n2)cc(OC)c1OC` [Example 59, (S)-N-((4-methyl-1,3-thiazol-2-yl)methyl)-1-(2-((3,4,5-trimethoxyphenyl)amino)-4-pyrimidinyl)-3-piperidinecarboxamide] it was 1 to 5 µM; in that of `COc1cc(Nc2nccc(N3CCC[C@H](C(=O)NCCc4ccc(Br)cc4)C3)n2)cc(OC)c1OC` [Example 60, (S)-N-(2-(4-bromophenyl)ethyl)-1-(2-((3,4,5-trimethoxyphenyl)amino)-4-pyrimidinyl)-3-piperidinecarboxamide], 0.05 to 0.1 µM; in that of `COc1cc(Nc2nccc(N3CCC[C@H](C(=O)NCCc4cn5ccccc5n4)C3)n2)cc(OC)c1OC` [Example 61, (S)-N-(2-imidazo[1,2-a]pyridin-2-ylethyl)-1-(2-((3,4,5-trimethoxyphenyl)amino)-4-pyrimidinyl)-3-piperidinecarboxamide], 5 to 10 µM.
For `COc1cc(Nc2nccc(N3CCC[C@H](C(=O)NCCOc4ccccc4)C3)n2)cc(OC)c1OC` [Example 62, (S)-N-(2-phenoxyethyl)-1-(2-((3,4,5-trimethoxyphenyl)amino)-4-pyrimidinyl)-3-piperidinecarboxamide], the IC50 is 0.1 to 1 µM.
For `COc1cc(Nc2nccc(N3CCC[C@H](C(=O)NCc4ccc5ccsc5c4)C3)n2)cc(OC)c1OC` [Example 64, (S)-N-(1-benzothiophen-6-ylmethyl)-1-(2-((3,4,5-trimethoxyphenyl)amino)-4-pyrimidinyl)-3-piperidinecarboxamide], the concentration for half-maximal inhibition (IC50) was 0.1 to 1 µM.
The same measure, in the same setting: under `COc1cc(Nc2nccc(N3CCC[C@H](C(=O)NCc4ccc(Cl)c(Cl)c4)C3)n2)cc(OC)c1OC` [Example 65, (S)-N-(3,4-dichlorobenzyl)-1-(2-((3,4,5-trimethoxyphenyl)amino)-4-pyrimidinyl)-3-piperidinecarboxamide] stands 0.1 to 1 µM.
Consider `COc1ccc(CNC(=O)[C@H]2CCCN(c3ccnc(Nc4cc(OC)c(OC)c(OC)c4)n3)C2)cc1OC` [Example 66, (S)-N-(3,4-dimethoxybenzyl)-1-(2-((3,4,5-trimethoxyphenyl)amino)-4-pyrimidinyl)-3-piperidinecarboxamide], for which the half-inhibitory concentration (IC50) lay in the range of 1 to 5 µM.
As for `COc1cc(Nc2nccc(N3CCC[C@H](C(=O)NCc4ccc(F)c(F)c4)C3)n2)cc(OC)c1OC` [Example 67, (S)-N-(3,4-difluorobenzyl)-1-(2-((3,4,5-trimethoxyphenyl)amino)-4-pyrimidinyl)-3-piperidinecarboxamide], the IC50 was in the range of 0.1 to 1 µM.
As to `COc1cc(Nc2nccc(N3CCC[C@H](C(=O)NCc4ccc(F)c(Cl)c4)C3)n2)cc(OC)c1OC` [Example 68, (S)-N-(3-chloro-4-fluorobenzyl)-1-(2-((3,4,5-trimethoxyphenyl)amino)-4-pyrimidinyl)-3-pipcridinecarboxamide], the IC50 was 0.1 to 1 µM.
In the case of `COc1cc(Nc2nccc(N3CCC[C@H](C(=O)NCc4ccc(C(C)(C)C)cc4)C3)n2)cc(OC)c1OC` [Example 70, (S)-N-(4-tert-butylbenzyl)-1-(2-((3,4,5-trimethoxyphenyl)amino)-4-pyrimidinyl)-3-piperidinecarboxamide], the concentration for half-maximal inhibition (IC50) is less than 0.05 µM.
Same read-out and setting: under `COc1cc(Nc2nccc(N3CCC[C@H](C(=O)NCc4ccc(Oc5ccc(F)cc5)cc4)C3)n2)cc(OC)c1OC` [Example 72, (S)-N-(4-(4-fluorophenoxy)benzyl)-1-(2-((3,4,5-trimethoxyphenyl)amino)-4-pyrimidinyl)-3-piperidinecarboxamide] stands 0.1 to 1 µM; under `COc1cc(Nc2nccc(N3CCC[C@H](C(=O)NCc4ccc5c(c4)CCCN5C)C3)n2)cc(OC)c1OC` [Example 73, (S)-N-((1-methyl-1,2,3,4-tetrahydro-6-quinolinyl)methyl)-1-(2-((3,4,5-trimethoxyphenyl)amino)-4-pyrimidinyl)-3-piperidinecarboxamide], 1 to 5 µM.
Regarding `COc1cc(Nc2nccc(N3CCC[C@H](C(=O)NCc4ccc(C)c(Cl)c4)C3)n2)cc(OC)c1OC` [Example 74, (S)-N-(3-chloro-4-methylbenzyl)-1-(2-((3,4,5-trimethoxyphenyl)amino)-4-pyrimidinyl)-3-piperidinecarboxamide], the IC50 fell in the range of 0.1 to 1 µM.
`COc1cc(Nc2nccc(N3CCC[C@H](C(=O)NCc4ccc(OC(F)F)cc4)C3)n2)cc(OC)c1OC` [Example 75, (S)-N-(4-(difluoromethoxy)benzyl)-1-(2-((3,4,5-trimethoxyphenyl)amino)-4-pyrimidinyl)-3-piperidinecarboxamide]: the 50% inhibitory concentration (IC50) was less than 0.05 µM.
For `COc1cc(Nc2nccc(N3CCC[C@H](C(=O)NCc4ccc5[nH]c(C)cc5c4)C3)n2)cc(OC)c1OC` [Example 76, (S)-N-((2-methyl-1H-indol-5-yl)methyl)-1-(2-((3,4,5-trimethoxyphenyl)amino)-4-pyrimidinyl)-3-piperidinecarboxamide], the concentration for half-maximal inhibition (IC50) lay within 0.05 to 0.1 µM.
As for `COc1cc(Nc2nccc(N3CCC[C@H](C(=O)NCc4ccc5c(c4)OCCO5)C3)n2)cc(OC)c1OC` [Example 77, (S)-N-(2,3-dihydro-1,4-benzodioxin-6-ylmethyl)-1-(2-((3,4,5-trimethoxyphenyl)amino)-4-pyrimidinyl)-3-piperidinecarboxamide], the concentration for half-maximal inhibition (IC50) lay within 1 to 5 µM.
For `COc1cc(Nc2nccc(N3CCC[C@H](C(=O)NCc4ccc(N5CCOCC5)cc4)C3)n2)cc(OC)c1OC` [Example 78, (S)-N-(4-(4-morpholinyl)benzyl)-1-(2-((3,4,5-trimethoxyphcnyl)amino)-4-pyrimidinyl)-3-piperidinecarboxamide], the IC50 lay within 1 to 5 µM.
